According to PubChem BioAssay AID330 (DTP/NCI, 2004):
Values joined by “and” are separate entries in the source; they are usually repeats but may differ in a detail not shown here. Equal values may be shown once. Toxic doses and inconclusive results are not listed. The calls were made as follows: active = survival T/C of 150% or more; inactive = T/C below 125% in these data.

System: P388 leukemia ip, CD2F1 mice, survival T/C
Assay: NCI In Vivo Anticancer Drug Screen. Data for tumor model P388 Leukemia (intraperitoneal) in CD2F1 (CDF1) mice
Details: endpoint: median survival time, higher = longer survival
Outline: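 Mice carrying the transplanted tumor received test compound or vehicle. Survival was recorded in each group, and the value is the treated-group measurement divided by that of the vehicle-treated control group.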

[1] = dose: 50.0 mg/kg/injection, schedule: Q01DX005 (ip), vehicle: saline with Tween-80
[2] = dose: 100.0 mg/kg/injection, schedule: Q01DX005 (ip), vehicle: saline with Tween-80
[3] = dose: 200.0 mg/kg/injection, schedule: Q01DX005 (ip), vehicle: saline with Tween-80
[4] = dose: 60.0 mg/kg/injection, schedule: Q01DX005 (ip), vehicle: Klucel (hydroxypropylcellulose) (HPC)

Measured: T/C

CCC(C1SC(=S)NC1=O)C1SC(=S)NC1=O (stereo not drawn)
inactive: [1] 92 % of control | [2] 97 % of control

CSCCC(NC(=O)OC(C)(C)C)C(=O)ON1C(=O)CCC1=O (stereo not drawn)
inactive: dose: 12.5 mg/kg/injection, schedule: Q01DX005 (ip), vehicle: saline with Tween-80 101 % of control and 107 % of control | dose: 25.0 mg/kg/injection, schedule: Q01DX005 (ip), vehicle: saline with Tween-80 103 % of control and 107 % of control | [1] 117 % of control and 98 % of control | [2] 106 % of control and 113 % of control and 116 % of control | [3] 107 % of control and 97 % of control

CC(C)CCC[C@@H](C)[C@H]1CC[C@H]2[C@@H]3CCC(=O)[C@](C)(CCC(=O)O)[C@H]3CC[C@]12C
inactive: dose: 6.25 mg/kg/injection, schedule: Q01DX009 (ip), vehicle: Klucel (hydroxypropylcellulose) (HPC) 96 % of control | dose: 12.5 mg/kg/injection, schedule: Q01DX009 (ip), vehicle: Klucel (hydroxypropylcellulose) (HPC) 96 % of control | dose: 25.0 mg/kg/injection, schedule: Q01DX009 (ip), vehicle: Klucel (hydroxypropylcellulose) (HPC) 92 % of control | dose: 50.0 mg/kg/injection, schedule: Q01DX009 (ip), vehicle: Klucel (hydroxypropylcellulose) (HPC) 87 % of control

Cc1ccc(N=Nc2c(C)noc2C)c(Br)c1
inactive: [4] 93 % of control | dose: 120.0 mg/kg/injection, schedule: Q01DX005 (ip), vehicle: Klucel (hydroxypropylcellulose) (HPC) 100 % of control | dose: 240.0 mg/kg/injection, schedule: Q01DX005 (ip), vehicle: Klucel (hydroxypropylcellulose) (HPC) 92 % of control

Nc1ncncc1C(C1=C(O)COC1=O)C1=C(O)COC1=O
inactive: dose: 60.0 mg/kg/injection, schedule: Q01DX005 (ip), vehicle: saline with Tween-80 98 % of control | dose: 120.0 mg/kg/injection, schedule: Q01DX005 (ip), vehicle: saline with Tween-80 100 % of control | dose: 240.0 mg/kg/injection, schedule: Q01DX005 (ip), vehicle: saline with Tween-80 98 % of control

C=C1C(O)C2(O)OCC34C(CC5C(C)=CC(=O)C(O)C5(C)C23)OC(=O)C(O)C14O (stereo not drawn)
inactive: dose: 6.25 mg/kg/injection, schedule: Q01DX009 (ip), vehicle: saline 93 % of control

C=Cc1ccccc1-c1ccccc1C(=O)OC
inactive: dose: 25.0 mg/kg/injection, schedule: Q04DX003 (ip), vehicle: saline with Tween-80 100 % of control | dose: 50.0 mg/kg/injection, schedule: Q04DX003 (ip), vehicle: saline with Tween-80 101 % of control | dose: 100.0 mg/kg/injection, schedule: Q04DX003 (ip), vehicle: saline with Tween-80 99 % of control

O=C(O)c1nn(-c2ccccc2-c2n[nH]c(=O)[nH]c2=O)c(=O)[nH]c1=O
inactive: [1] 101 % of control | [2] 90 % of control | [3] 95 % of control

Nc1ccc(S(=O)(=O)Nc2cccc3[nH]c(=O)oc23)cc1
inactive: dose: 50.0 mg/kg/injection, schedule: Q04DX002 (ip), vehicle: Klucel (hydroxypropylcellulose) (HPC) 101 % of control | dose: 100.0 mg/kg/injection, schedule: Q04DX002 (ip), vehicle: Klucel (hydroxypropylcellulose) (HPC) 99 % of control | dose: 200.0 mg/kg/injection, schedule: Q04DX002 (ip), vehicle: Klucel (hydroxypropylcellulose) (HPC) 100 % of control

C=Cc1cc(OC)c2c(c1)c(=O)oc1c2cc(OC)c2c(O)ccc(C3OC(C(C)O)C(O)C3O)c21 (stereo not drawn)
inactive: dose: 2.0 mg/kg/injection, schedule: Q04DX003 (ip), vehicle: DMSO 108 % of control | dose: 4.0 mg/kg/injection, schedule: Q04DX003 (ip), vehicle: DMSO 114 % of control | dose: 8.0 mg/kg/injection, schedule: Q04DX003 (ip), vehicle: DMSO 123 % of control | dose: 15.0 mg/kg/injection, schedule: Q01DX005 (ip), vehicle: Klucel (hydroxypropylcellulose) (HPC) 119 % of control | dose: 30.0 mg/kg/injection, schedule: Q01DX005 (ip), vehicle: Klucel (hydroxypropylcellulose) (HPC) 107 % of control | [4] 120 % of control | dose: 400.0 mg/kg/injection, schedule: Q01DX005 (ip), vehicle: Klucel (hydroxypropylcellulose) (HPC) 98 % of control
active: dose: 16.0 mg/kg/injection, schedule: Q04DX003 (ip), vehicle: DMSO 155 % of control | dose: 32.0 mg/kg/injection, schedule: Q04DX003 (ip), vehicle: DMSO 155 % of control | dose: 200.0 mg/kg/injection, schedule: Q01DX005 (ip), vehicle: Klucel (hydroxypropylcellulose) (HPC) 157 % of control

COC(=O)c1ccc(C)c(N)c1
inactive: [1] 102 % of control | [2] 104 % of control | [3] 102 % of control

COc1cccc2c1C(=O)c1c(O)c3c(c(O)c1C2=O)C[C@@](O)(C(C)=O)C[C@@H]3OC1CC(N2CCOCC2)C(O)C(C)O1 (stereo partly drawn)
inactive: dose: 25.0 micrograms/kg/injection, schedule: Q04DX003 (ip), vehicle: water 112 % of control | dose: 50.0 micrograms/kg/injection, schedule: Q04DX003 (ip), vehicle: water 101 % of control and 98 % of control and 108 % of control | dose: 100.0 micrograms/kg/injection, schedule: Q04DX003 (ip), vehicle: water 115 % of control [middle of 4 runs]
